Measurements from patent US20250262201A1, “COMPOUNDS AND METHODS USEFUL FOR STABILIZING PHENYLALANINE HYDROXYLASE MUTATIONS” (Agios Pharmaceuticals, Inc., priority 2022, published 2025).

Target: T1, human PAH with the R408W mutation (Homo sapiens, UniProt P00439, R408W)
T1 construct: expressed in transfected cells
T1 sequence (P00439 1-452 R408W): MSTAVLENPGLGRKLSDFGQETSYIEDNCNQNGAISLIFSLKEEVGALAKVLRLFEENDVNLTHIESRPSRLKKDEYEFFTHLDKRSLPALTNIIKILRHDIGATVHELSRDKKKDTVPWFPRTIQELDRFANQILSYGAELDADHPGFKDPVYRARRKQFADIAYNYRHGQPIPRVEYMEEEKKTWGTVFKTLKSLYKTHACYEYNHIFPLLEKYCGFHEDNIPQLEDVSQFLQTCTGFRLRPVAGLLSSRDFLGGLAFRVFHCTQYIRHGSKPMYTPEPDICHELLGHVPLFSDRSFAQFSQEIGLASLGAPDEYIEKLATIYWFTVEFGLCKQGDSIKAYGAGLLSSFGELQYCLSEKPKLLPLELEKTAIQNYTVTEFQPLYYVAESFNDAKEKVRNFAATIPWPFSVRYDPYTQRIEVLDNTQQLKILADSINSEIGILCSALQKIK
Experiment: Cell Based Phenylalanine Flux Assay
Conditions: A375 cells expressing human R408W PAH; 24 hrs compound incubation; 13C-Tyrosine by LC-MS; average where tested multiple times; read-out: AC50

Row | SMILES | AC50 [µM]
1 | CC(C)(C)c1nnc(C(=O)N2CCc3[nH]cnc3[C@@H]2c2ncc3ccccc3n2)o1 [Example 202, (R)-(5-(tert-butyl)-1,3,4-oxadiazol-2-yl)(4-(quinazolin-2-yl)-6,7-dihydro-1H-imidazo[4,5-c]pyridin-5(4H)-yl)methanone] | > 5
2 | Cn1nccc1-c1nnc(C(=O)N2CCc3[nH]cnc3[C@H]2c2ncc3ccccc3n2)o1 [Example 203, (S)-(5-(1-methyl-1H-pyrazol-5-yl)-1,3,4-oxadiazol-2-yl)(4-(quinazolin-2-yl)-6,7-dihydro-1H-imidazo[4,5-c]pyridin-5(4H)-yl)methanone] | < 0.5
3 | Cn1nccc1-c1nnc(C(=O)N2CCc3[nH]cnc3[C@@H]2c2ncc3ccccc3n2)o1 [Example 204, (R)-(5-(1-methyl-1H-pyrazol-5-yl)-1,3,4-oxadiazol-2-yl)(4-(quinazolin-2-yl)-6,7-dihydro-1H-imidazo[4,5-c]pyridin-5(4H)-yl)methanone] | 1 to 5
4 | O=C(c1cnc(-c2ccccn2)s1)N1CCc2[nH]cnc2[C@H]1c1cc2ccccc2nn1 [Example 205, (S)-(4-(cinnolin-3-yl)-6,7-dihydro-1H-imidazo[4,5-c]pyridin-5(4H)-yl)(2-(pyridin-2-yl)thiazol-5-yl)methanone] | 0.5 to 1
5 | O=C(c1cnc(-c2ccccn2)s1)N1CCc2[nH]cnc2[C@@H]1c1cc2ccccc2nn1 [Example 206, (R)-(4-(cinnolin-3-yl)-6,7-dihydro-1H-imidazo[4,5-c]pyridin-5(4H)-yl)(2-(pyridin-2-yl)thiazol-5-yl)methanone] | 1 to 5
6 | Cc1nc(-c2ccccn2)oc1C(=O)N1CCc2[nH]cnc2[C@@H]1c1cc2ccccc2nn1 [Example 207] | > 5
7 | Cc1nc(-c2ccccn2)oc1C(=O)N1CCc2[nH]cnc2[C@H]1c1cc2ccccc2nn1 [Example 208, (S)-(4-(cinnolin-3-yl)-6,7-dihydro-1H-imidazo[4,5-c]pyridin-5(4H)-yl)(4-methyl-2-(pyridin-2-yl)oxazol-5-yl)methanone] | 0.5 to 1
8 | CC(C)(O)c1nc(C(F)F)c(C(=O)N2CCc3[nH]cnc3[C@H]2c2cc3ccccc3nn2)o1 [Example 209, (S)-(4-(cinnolin-3-yl)-6,7-dihydro-1H-imidazo[4,5-c]pyridin-5(4H)-yl)(4-(difluoromethyl)-2-(2-hydroxypropan-2-yl)oxazol-5-yl)methanone] | < 0.5
9 | CC(C)(O)c1nc(C(F)F)c(C(=O)N2CCc3[nH]cnc3[C@@H]2c2cc3ccccc3nn2)o1 [Example 210, (R)-(4-(cinnolin-3-yl)-6,7-dihydro-1H-imidazo[4,5-c]pyridin-5(4H)-yl)(4-(difluoromethyl)-2-(2-hydroxypropan-2-yl)oxazol-5-yl)methanone] | 1 to 5
10 | Cc1ncoc1C(=O)N1CCc2[nH]cnc2[C@H]1c1cc2ccccc2nn1 [Example 211, (S)-(4-(cinnolin-3-yl)-6,7-dihydro-1H-imidazo[4,5-c]pyridin-5(4H)-yl)(4-methyloxazol-5-yl)methanone] | < 0.5
11 | O=C(c1ccnn1C(F)F)N1CCc2[nH]cnc2[C@H]1c1cc2ccccc2nn1 [Example 213, (S)-(4-(cinnolin-3-yl)-6,7-dihydro-1H-imidazo[4,5-c]pyridin-5(4H)-yl)(1-(difluoromethyl)-1H-pyrazol-5-yl)methanone] | < 0.5
12 | O=C(c1ccnn1C(F)F)N1CCc2[nH]cnc2[C@@H]1c1cc2ccccc2nn1 [Example 214, (R)-(4-(cinnolin-3-yl)-6,7-dihydro-1H-imidazo[4,5-c]pyridin-5(4H)-yl)(1-(difluoromethyl)-1H-pyrazol-5-yl)methanone] | 1 to 5
13 | O=C(C1CC1)N1CCc2[nH]cnc2[C@H]1c1cc2ccccc2nn1 [Example 215, (S)-(4-(cinnolin-3-yl)-6,7-dihydro-1H-imidazo[4,5-c]pyridin-5(4H)-yl)(cyclopropyl)methanone] | 1 to 5
14 | O=C(C1CC1)N1CCc2[nH]cnc2[C@@H]1c1cc2ccccc2nn1 [Example 216, (R)-(4-(cinnolin-3-yl)-6,7-dihydro-1H-imidazo[4,5-c]pyridin-5(4H)-yl)(cyclopropyl)methanone] | 1 to 5
